Results taken from the supplement of paper PMC11061612.

How the values were obtained:
[1] = test system: NCI-H1694 (Small Cell Lung Carcinoma); test: Bliss excess, mean over the matrix (fraction); higher = more synergy
Method in brief: (§1)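 Cell lines in DMEM/F12 or RPMI with 10% FBS were plated in 1536-well plates, held 24 hours at 37°C, 5% CO2, then given two-drug dose matrices for 72 hours (DMSO typically 0.2%). Viability was read by CellTiter-Glo 2.0 luminescence and scaled as inhibition from 0 (vehicle wells) to 1 (blank wells). Combination Emax is the second-highest inhibition in the matrix; Bliss excess is observed combination effect minus expected EA + EB − EA·EB, EA and EB being single-agent effects.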

[2] = test system: KATOIII (Gastric Carcinoma); test: as above
Method in brief: as §1

NCI-H2595 (Mesothelioma) [3] = test: as above
Method in brief: as §1

[4] = test system: KM-H2 (Hodgkin's Lymphoma); test: as above
Method in brief: as §1

RH-1 (Ewing's Sarcoma) = test: as above
Method in brief: as §1

[5] = test system: TGBC24TKB (Biliary Tract Carcinoma); test: as above
Method in brief: as §1

[6] = test system: CTV-1 (T-Lymphoblastic Leukemia); test: as above
Method in brief: as §1

[7] = test system: KARPAS-1106P (B-Cell Non-Hodgkin's Lymphoma); test: as above
Method in brief: as §1

[8] = test system: SW1990 (Pancreatic Carcinoma); test: as above
Method in brief: as §1

[9] = test system: SUIT-2 (Pancreatic Carcinoma); test: as above
Method in brief: as §1

[10] = test system: G-292-Clone-A141B1 (Osteosarcoma); test: as above
Method in brief: as §1

[11] = test system: HCC2157 (Breast Carcinoma); test: combination Emax (second highest fraction inhibited in the dose matrix, 72 h); higher = more inhibition; extreme values may be limits of the assay
Method in brief: as §1

NCI-H2595 (Mesothelioma) [12] = test: as above
Method in brief: as §1

IGR-1 (Melanoma) = test: as above
Method in brief: as §1

[13] = test system: CTV-1 (T-Lymphoblastic Leukemia); test: as above
Method in brief: as §1

[14] = test system: NALM-6 (B-Lymphoblastic Leukemia); test: as above
Method in brief: as §1

[15] = test system: KARPAS-1106P (B-Cell Non-Hodgkin's Lymphoma); test: as above
Method in brief: as §1

[16] = test system: SW1088 (Low Grade Glioma); test: as above
Method in brief: as §1

[17] = test system: DMS-273 (Small Cell Lung Carcinoma); test: as above
Method in brief: as §1

[18] = test system: G-292-Clone-A141B1 (Osteosarcoma); test: as above
Method in brief: as §1
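Throughout, for Bliss excess, mean over the matrix: after 72 h of two-drug dosing.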

Row | SMILES | Bliss excess [1] | Bliss excess [2] | Bliss excess (NCI-H2595 (Mesothelioma) [3]) | Bliss excess [4] | Bliss excess (RH-1 (Ewing's Sarcoma)) | Bliss excess [5] | Bliss excess [6] | Bliss excess [7] | Bliss excess [8] | Bliss excess [9] | Bliss excess [10] | combination Emax [11] | combination Emax (NCI-H2595 (Mesothelioma) [12]) | combination Emax (IGR-1 (Melanoma)) | combination Emax [13] | combination Emax [14] | combination Emax [15] | combination Emax [16] | combination Emax [17] | combination Emax [18]
1 | CC1(C)CCC(CN2CCN(c3ccc(C(=O)NS(=O)(=O)c4ccc(NCC5CCOCC5)c([N+](=O)[O-])c4)c(Oc4cnc5[nH]ccc5c4)c3)CC2)=C(c2ccc(Cl)cc2)C1 [Venetoclax] + C1CN(CCC1(C(=O)N[C@@H](CCO)C2=CC=C(C=C2)Cl)N)C3=NC=NC4=C3C=CN4 [Capivasertib] (first compound max 1 µM, 7x7, partner max 3 µM) | -0.0418 | -0.0691 | -0.0465 | -0.0178 | -0.0353 | 0.0325 | -0.0319 | -0.0409 | -0.064 | -0.0663 | -0.0701 | 0.903 | 0.235 | 0.193 | 0.359 | 0.848 | 0.492 | 0.494 | 0.743 | 0.273
2 | CC(=O)c1c(C)c2cnc(Nc3ccc(N4CCNCC4)cn3)nc2n(C2CCCC2)c1=O [Palbociclib] + Cc1c2c(nn1C)CSCc1cc(n(C)n1)CSc1cc(c3ccccc3c1)OCCCc1c(C(=O)O)n(C)c3c-2c(Cl)ccc13 [AZD5991] (first compound max 10 µM, 7x7, partner max 1 µM) | -0.073 | 0.0505 | -0.0622 | -0.0228 | -0.0722 | 0.0597 | -0.0096 | -0.0645 | -0.0427 | -0.014 | -0.0371 | 1 | 0.225 | 0.818 | 0.843 | 0.846 | 0.897 | 0.364 | 0.94 | 0.161
3 | Cc1c2c(nn1C)CSCc1cc(n(C)n1)CSc1cc(c3ccccc3c1)OCCCc1c(C(=O)O)n(C)c3c-2c(Cl)ccc13 [AZD5991] + CCN(CCO)CCCOc1ccc2c(Nc3cc(CC(=O)Nc4cccc(F)c4)[nH]n3)ncnc2c1 [AZD2811] (first compound max 1 µM, 7x7, partner max 1 µM) | 0.0939 | -0.0687 | 0.0141 | 0.0654 | -0.0457 | 0.0122 | 0.0556 | 0.0744 | 0.0159 | 0.0126 | -0.021 | 0.985 | 0.324 | 0.338 | 0.278 | 0.655 | 0.955 | 0.494 | 0.993 | 0.276
4 | Cc1cc2ncnn2cc1Nc1ncc2c(n1)n(C1CCOCC1)c(=O)n2C [AZD7648] + C[C@@H]1COCCN1C2=NC(=NC(=C2)C3(CC3)[S@](=N)(=O)C)C4=C5C=CNC5=NC=C4 [AZD6738] (first compound max 10 µM, 7x7, partner max 10 µM) | 0.0194 | -0.064 | -0.0059 | 0.0227 | -0.0016 | 0.0117 | -0.0024 | 0.0183 | 0.0049 | -0.0306 | 0.0274 | 0.842 | 0.208 | 0.348 | 0.864 | 0.932 | 0.756 | 0.671 | 0.788 | 0.334
5 | CCN(CCO)CCCOc1ccc2c(Nc3cc(CC(=O)Nc4cccc(F)c4)[nH]n3)ncnc2c1 [AZD2811] + O=C(c1cc(Cc2n[nH]c(=O)c3ccccc23)ccc1F)N1CCN(C(=O)C2CC2)CC1 [Olaparib] (first compound max 1 µM, 7x7, partner max 10 µM) | 0.0406 | -0.0332 | 0.0072 | 0.0789 | -0.0451 | -0.0102 | 0.0712 | -0.0229 | -0.0302 | -0.0254 | 0.0252 | 0.539 | 0.226 | 0.168 | 0.375 | 0.873 | 0.535 | 0.616 | 0.735 | 0.304
6 | COc1cccc(OCCCN)c1-c1cc(Nc2cnc(C#N)cn2)n[nH]1 [Prexasertib] + C[C@@H]1COCCN1C2=NC(=NC(=C2)C3(CC3)[S@](=N)(=O)C)C4=C5C=CNC5=NC=C4 [AZD6738] (first compound max 1 µM, 7x7, partner max 10 µM) | -0.06 | 0.0124 | -0.0279 | -0.0214 | 0.0014 | -0.0038 | -0.0725 | -0.0714 | -0.0446 | -0.03 | 0.0477 | 0.971 | 0.141 | 0.566 | 0.948 | 0.943 | 0.905 | 0.762 | 0.916 | 0.325
7 | NC1(C(=O)N[C@@H](CCO)c2ccc(Cl)cc2)CCN(c2ncnc3[nH]ccc23)CC1 [Capivasertib] + Cn1cnc2c(F)c(Nc3ccc(Br)cc3Cl)c(C(=O)NOCCO)cc21 [Selumetinib] (first compound max 10 µM, 7x7, partner max 10 µM) | -0.0078 | 0.0291 | -0.0454 | -0.0084 | 0.0148 | 0.132 | 0.106 | 0.0759 | 0.0535 | -0.0181 | -0.0056 | 1 | 0.29 | 0.915 | 0.852 | 0.697 | 0.586 | 0.618 | 0.837 | 0.371
